We go through 26 compounds from patent US5770759A, “Prostaglandins of the F series” (priority 1987, dated 1998).

In series [1] the test system is pulse. Also noted: species or system Male Wister rat. Particulars: rat, in vivo. As to the method:
Male Wister rat (8-week old) was anesthetized by intraperitoneally administering urethane (1.25 g/kg). A tachometer was operated by R wave of electrocardiogram of exterminal derivation. The effect of the tested 15-keto-PGEs on pulse is evaluated by the value calucurated from the following formula: [formula]

For series [2], the system named is blood pressure. The experiment in a line: Change in blood pressure in anesthetized rats (Experiment 1). Particulars: for Blood Pressure: Table 2, class symbols; for Change in Blood Pressure (%): 1 mg/kg into tail vein, anesthetized rat, average of 5 data per group. The series is classed as in vivo, Male Wister rat. As to the method:
Male Wister rat (8-week old) was anesthetized by intraperitoneally administering urethane (1.25 g/kg). Polyethylene tube was inserted into femoral artery and connected with a pressure transducer to measure blood pressure.
The test drugs were dissolved in ethanol, diluted with Ringer's solution before use and a dose of 1 mg/kg was administered into tale vein. The maximum concentration of ethanol was 2%. As reference, ethanol-Ringer's solution without containing test drugs was used and the effect was checked in each experiment without failing. The rate of change in blood pressure (%) was determined by average of 5 data per group.

The subject of series [3] is mouse. The experiment in a line: Acute toxicity upon oral administration (Experiment 6). Particulars: mouse (5 weeks old). The series is classed as in vivo, Male Slc-ddY mouse. The text has this: Using Male Slc-ddY mouse (5 weeks old), acute toxicity upon oral administration (LD50) was examined.

Consider `CCCCC[C@H](O)/C=C/[C@@H]1[C@@H](C/C=C\CCCC(=O)O)[C@@H](O)C[C@H]1O` [PGF2 α, (Z)-7-[(1R,2R,3R,5S)-3,5-dihydroxy-2-{(E)-(3S)-3-hydroxy-1-octenyl}-cyclopentyl]-5-heptenoic acid, reference compound], for which, in series [1], the Pulse entry is “.dwnarw. → .uparw” and the “effect on pulse (in words)” value is “ephemeral decrease in pulse”. In addition, in series [2] (rat), the “Blood Pressure” value is reported as “.dwnarw. → .uparw” and the “effect on blood pressure (in words)” value was “ephemeral decrease in pulse as well as blood pressure”.
Consider “13,14-dihydro-15-keto-20-ethyl-PGF2 α n-butyl ester [Test Drug 19]”, for which the “Change in Blood Pressure (%)” value in series [2] is “+8%”.
On the same count and under the same terms, then “13,14-dihydro-15-keto-20-ethyl-16R,S-fluoro-PGF2 α methyl ester [Test Drug 11]”, with “+8%”; and “13,14-dihydro-15-keto-16R,S-fluoro-PGF2 α methyl ester [Test Drug 6]”, with “+18%”; and `CCCCCC(=O)CC[C@@H]1[C@@H](C/C=C\CCCC(=O)OCC)[C@@H](O)C[C@H]1O` [Test Drug 2, 13,14-dihydro-15-keto-PGF2 α ethyl ester], with “+17%”.
Consider “13,14-dihydro-15-keto-20-ethyl-PGF1 α methyl ester [Test Drug 25]”, for which the “Change in Blood Pressure (%)” value in series [2] is recorded as “+32%”.
As for `CCCCCCCCC(=O)CC[C@@H]1[C@@H](C/C=C\CCCC(=O)OC)[C@@H](O)C[C@H]1O` [Test Drug 21, 13,14-dihydro-15-keto-20-n-propyl-PGF2 α methyl ester], the “Change in Blood Pressure (%)” value in series [2] was “+16%”.
Take “13,14-dihydro-15-keto-16,16-dimethyl-PGF2 α ethyl ester [Test Drug 4]”: the “Change in Blood Pressure (%)” value in series [2] is on record as “+7%”.
Turning to “13,14-dihydro-15-keto-20-ethyl-11R-dehydroxy-11R-methyl-PGF2 α methyl ester [Example 15]”, in series [2], the “Change in Blood Pressure (%)” value was “+7%”.
For “13,14-dihydro-15-keto-20-ethyl-PGF2 α isopropyl ester [Test Drug 18]”, the “LD50 (oral)” value in series [3] was over 2000 mg/kg. In addition, in series [2], the “Change in Blood Pressure (%)” value is listed as “+16%”. In series [2] (rat), the “Blood Pressure” value is reported as “.uparw. (increase more than 10%)”.
As to `CCCCCC(=O)CC[C@@H]1[C@@H](C/C=C\CCCC(=O)OC)[C@@H](O)C[C@H]1O` [compound 1], the “Change in Blood Pressure (%)” value in series [2] is “+12%”.
On to “13,14-dihydro-15-keto-9β,11α-PGF2 methyl ester [Test Drug 3]”, for which, in series [2], the “Change in Blood Pressure (%)” value is listed as “+5%”.
As for “13,14-dihydro-15-keto-20-methoxy-PGF2 α methyl ester [Example 9]”, in series [2], the “Change in Blood Pressure (%)” value is “+41%”.
“13,14-dihydro-15-keto-16-desbutyl-16-m-trifluoromethylphenoxy-PGF2 α methyl ester [Test Drug 23]”: the “Change in Blood Pressure (%)” value in series [2] is reported as “+5%”.
Same read-out and setting: then “13,14-dihydro-15-keto-16R,S-fluoro-11R-dehydroxy-11R-methyl-PGF2 α methyl ester [Test Drug 8]”, with “+44%”; and “13,14-dihydro-15-keto-20-ethyl-16R,S-fluoro-PGF2 α [Test Drug 10]”, with “+35%”.
Regarding “13,14-dihydro-15-keto-20-ethyl-PGF2 α ethyl ester [Test Drug 17]”, in series [2], the “Change in Blood Pressure (%)” value is on record as “+20%”.
As to “13,14-dihydro-15-keto-16R,S-fluoro-PGF2 α [Test Drug 5]”, in series [2], the “Change in Blood Pressure (%)” value is listed as “+7%”.
With “13,14-dihydro-15-keto-20-ethyl-PGF2 α methyl ester [Test Drug 16]”, in series [3], the “LD50 (oral)” value is reported as over 2000 mg/kg. Moreover, the “Change in Blood Pressure (%)” value in series [2] was “+26%”. In addition, the “Blood Pressure” value in series [2] (rat) is on record as “.uparw. (increase more than 10%)”.
For “13,14-dihydro-15-keto-20-methyl-PGF2 α methyl ester [Test Drug 14]”, the “Change in Blood Pressure (%)” value in series [2] was “+10%”.
Same read-out and setting: the result for “13,14-dihydro-15-keto-20-ethyl-PGF2 α [Test Drug 15]” reads “+24%”.
Consider “13,14-dihydro-15-keto-PGF2 α methyl ester [Test Drug 1]”, for which the “Change in Blood Pressure (%)” value in series [2] is recorded as “+14%”. Further, in series [2] (rat), the “Blood Pressure” value is “.uparw. (increase more than 10%)”.
Turning to “13,14-dihydro-15-keto-17S-methyl-PGF2 α ethyl ester [Test Drug 13]”, the “Change in Blood Pressure (%)” value in series [2] was “+18%”.
On to “13,14-dihydro-15-keto-20-n-butyl-PGF2 α methyl ester [Test Drug 22]”, for which, in series [2], the “Change in Blood Pressure (%)” value is recorded as “+14%”.
As for “13,14-dihydro-15-keto-20-ethyl-16R,S-fluoro-11R-dehydroxy-11R-methyl-PGF2 α methyl ester [Test Drug 12]”, in series [2], the “Change in Blood Pressure (%)” value is on record as “+13%”.
Take “13,14-dihydro-15-keto-PGF1 α ethyl ester [Test Drug 24]”: in series [2], the “Change in Blood Pressure (%)” value is recorded as “+27%”.
